Test results as given in doi:10.1101/2022.12.17.520850v1, “A-ring-fused pyrazoles of dihydrotestosterone targeting prostate cancer cells via the downregulation of the androgen receptor” (biorxiv, 2022).

Molecular target: T1, human recombinant AR-LBD (Homo sapiens, UniProt P10275)
T1 sequence (P10275 664-920): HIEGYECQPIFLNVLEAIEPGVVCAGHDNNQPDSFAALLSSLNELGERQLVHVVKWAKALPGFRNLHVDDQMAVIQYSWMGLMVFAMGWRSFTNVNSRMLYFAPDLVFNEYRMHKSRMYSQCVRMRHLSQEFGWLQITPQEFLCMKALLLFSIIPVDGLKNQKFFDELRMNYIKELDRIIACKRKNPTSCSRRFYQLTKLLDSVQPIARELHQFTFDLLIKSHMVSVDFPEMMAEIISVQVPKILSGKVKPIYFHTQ
Experiment: microscale thermophoresis
Assay type: binding
Conditions: […] 3d, […] His-tagged AR-LBD, […] Tris, […] NaCl, pH […] DTT, […] Tween; labelled protein

## Cc1c2c(nn1-c1ccc(F)cc1)C[C@@H]1CC[C@@H]3[C@H](CC[C@]4(C)[C@@H](O)CC[C@@H]34)[C@@]1(C)C2 [3d]
  microscale thermophoresis: confirmed thus binding of 3d into the AR-LBD
